# Assay results taken from ChEMBL document CHEMBL1201862, “PubChem BioAssay data set” (2004).
# Active and inactive are the calls of the source.
# What was measured:
# [1] = molecular target: T1, RNA-binding protein pos-1 (Caenorhabditis elegans, UniProt G5EF15); test: disruptors of C. elegans POS-1 RNA interaction – biochemical, fluorescence polarization, dose response (AID 1964);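 further: purified POS-1 fused to maltose binding protein made in E. coli; potency of compounds blocking POS-1 binding to fluorescent RNA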
# T1 sequence (G5EF15 whole entry): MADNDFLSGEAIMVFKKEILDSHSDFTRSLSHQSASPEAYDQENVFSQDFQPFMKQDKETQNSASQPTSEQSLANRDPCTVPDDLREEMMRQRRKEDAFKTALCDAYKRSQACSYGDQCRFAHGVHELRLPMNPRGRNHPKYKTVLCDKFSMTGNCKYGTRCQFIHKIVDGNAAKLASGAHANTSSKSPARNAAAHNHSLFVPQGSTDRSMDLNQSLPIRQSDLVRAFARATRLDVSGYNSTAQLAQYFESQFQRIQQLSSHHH
# [2] = molecular target: T2, Sentrin-specific protease 7 (Homo sapiens, UniProt Q9BQF6); format: functional;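 further: Luminescence-based dose-response confirmation of ultra-high-throughput screening hits, measuring inhibition of SENP7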
# T2 sequence (Q9BQF6 whole entry): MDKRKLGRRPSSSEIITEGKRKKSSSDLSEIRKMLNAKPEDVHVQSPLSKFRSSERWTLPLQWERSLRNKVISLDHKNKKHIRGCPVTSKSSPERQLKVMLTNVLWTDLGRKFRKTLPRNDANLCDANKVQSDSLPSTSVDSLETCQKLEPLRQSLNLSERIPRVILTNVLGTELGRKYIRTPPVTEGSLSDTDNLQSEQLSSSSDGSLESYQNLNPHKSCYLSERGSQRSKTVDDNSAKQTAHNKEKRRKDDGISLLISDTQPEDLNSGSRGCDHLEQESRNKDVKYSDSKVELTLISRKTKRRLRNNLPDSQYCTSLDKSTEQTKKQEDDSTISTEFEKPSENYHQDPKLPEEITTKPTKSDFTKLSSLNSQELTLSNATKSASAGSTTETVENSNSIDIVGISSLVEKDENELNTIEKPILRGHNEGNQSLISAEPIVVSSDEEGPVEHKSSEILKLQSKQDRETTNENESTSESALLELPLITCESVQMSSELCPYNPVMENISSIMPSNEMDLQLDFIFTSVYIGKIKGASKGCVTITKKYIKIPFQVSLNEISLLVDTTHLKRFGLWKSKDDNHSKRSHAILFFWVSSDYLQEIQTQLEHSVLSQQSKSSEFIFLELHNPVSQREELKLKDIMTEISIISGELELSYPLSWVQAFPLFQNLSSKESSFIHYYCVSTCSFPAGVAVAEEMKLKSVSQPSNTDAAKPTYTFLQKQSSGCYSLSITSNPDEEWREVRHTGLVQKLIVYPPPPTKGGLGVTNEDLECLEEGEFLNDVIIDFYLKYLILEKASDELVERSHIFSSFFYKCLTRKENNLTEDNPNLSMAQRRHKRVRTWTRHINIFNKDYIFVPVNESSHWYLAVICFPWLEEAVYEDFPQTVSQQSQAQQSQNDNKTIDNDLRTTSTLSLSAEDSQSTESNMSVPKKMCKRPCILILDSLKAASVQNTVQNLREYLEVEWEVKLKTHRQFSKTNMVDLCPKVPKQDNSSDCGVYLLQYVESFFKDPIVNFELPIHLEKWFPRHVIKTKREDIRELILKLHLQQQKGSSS
# [3] = molecular target: T3, Endoribonuclease toxin MazF (Escherichia coli K-12, UniProt P0AE70); test: substrate-only fluorescence increase artefacts – biochemical, single-stranded RNase substrate, counter-screen for MazEF activator project, dose response (AID 588502); format: functional
# T3 sequence (P0AE70 whole entry): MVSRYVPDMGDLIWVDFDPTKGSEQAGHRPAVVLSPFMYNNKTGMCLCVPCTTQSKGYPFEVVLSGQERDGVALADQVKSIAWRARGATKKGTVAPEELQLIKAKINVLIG
# Caspase-3 = molecular target: T4, Caspase-3 (Homo sapiens, UniProt P42574); format: functional;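 further: Dose-response selectivity test against caspase-3 for candidate inhibitors of sentrin-specific proteases (SENPs)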
# T4 sequence (P42574 whole entry): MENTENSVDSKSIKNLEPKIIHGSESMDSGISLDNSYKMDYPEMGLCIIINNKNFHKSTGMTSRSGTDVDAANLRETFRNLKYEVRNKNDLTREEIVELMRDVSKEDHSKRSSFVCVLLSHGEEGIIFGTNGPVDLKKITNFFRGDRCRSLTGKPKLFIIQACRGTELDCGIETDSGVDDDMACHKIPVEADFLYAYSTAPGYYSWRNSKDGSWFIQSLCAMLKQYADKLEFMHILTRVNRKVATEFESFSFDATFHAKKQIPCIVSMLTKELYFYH
# [4] = molecular target: T5, Replicative DNA helicase DnaB (Mycobacterium tuberculosis, UniProt P9WMR3); test: DnaB intein splicing inhibitors, dose response, biochemical, cell-free fluorescence (AID 449749); format: functional
# T5 sequence (P9WMR3 whole entry): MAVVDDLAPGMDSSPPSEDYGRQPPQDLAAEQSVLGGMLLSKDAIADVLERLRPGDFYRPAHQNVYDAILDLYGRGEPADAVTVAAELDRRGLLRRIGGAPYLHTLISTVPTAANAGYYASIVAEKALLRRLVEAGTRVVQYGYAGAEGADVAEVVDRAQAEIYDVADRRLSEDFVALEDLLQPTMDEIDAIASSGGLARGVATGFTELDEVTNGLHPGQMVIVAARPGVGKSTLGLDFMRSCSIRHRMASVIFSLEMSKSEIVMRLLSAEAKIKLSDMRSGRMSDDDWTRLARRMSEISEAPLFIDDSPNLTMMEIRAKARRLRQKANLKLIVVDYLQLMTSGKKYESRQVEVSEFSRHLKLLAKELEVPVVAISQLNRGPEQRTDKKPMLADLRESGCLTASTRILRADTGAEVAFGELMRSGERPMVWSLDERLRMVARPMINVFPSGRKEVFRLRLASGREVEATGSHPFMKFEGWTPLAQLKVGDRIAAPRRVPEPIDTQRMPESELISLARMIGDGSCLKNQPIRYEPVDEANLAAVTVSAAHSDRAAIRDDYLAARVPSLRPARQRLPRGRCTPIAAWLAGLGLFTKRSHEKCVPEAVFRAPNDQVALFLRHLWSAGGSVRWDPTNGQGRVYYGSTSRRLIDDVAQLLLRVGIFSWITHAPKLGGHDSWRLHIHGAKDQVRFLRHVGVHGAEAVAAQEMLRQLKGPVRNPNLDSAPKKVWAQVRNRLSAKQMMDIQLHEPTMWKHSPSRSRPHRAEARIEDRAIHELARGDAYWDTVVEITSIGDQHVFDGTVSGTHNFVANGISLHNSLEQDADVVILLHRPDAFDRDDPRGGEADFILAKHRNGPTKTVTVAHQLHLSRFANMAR
# [5] = molecular target: Serine/threonine-protein phosphatase (Homo sapiens, UniProt Q9BPW0); test: inhibition of protein phosphatase 5 activity – biochemical, fluorescence, dose response (AID 2395)
# Serine/threonine-protein phosphatase, sequence (Q9BPW0 whole entry): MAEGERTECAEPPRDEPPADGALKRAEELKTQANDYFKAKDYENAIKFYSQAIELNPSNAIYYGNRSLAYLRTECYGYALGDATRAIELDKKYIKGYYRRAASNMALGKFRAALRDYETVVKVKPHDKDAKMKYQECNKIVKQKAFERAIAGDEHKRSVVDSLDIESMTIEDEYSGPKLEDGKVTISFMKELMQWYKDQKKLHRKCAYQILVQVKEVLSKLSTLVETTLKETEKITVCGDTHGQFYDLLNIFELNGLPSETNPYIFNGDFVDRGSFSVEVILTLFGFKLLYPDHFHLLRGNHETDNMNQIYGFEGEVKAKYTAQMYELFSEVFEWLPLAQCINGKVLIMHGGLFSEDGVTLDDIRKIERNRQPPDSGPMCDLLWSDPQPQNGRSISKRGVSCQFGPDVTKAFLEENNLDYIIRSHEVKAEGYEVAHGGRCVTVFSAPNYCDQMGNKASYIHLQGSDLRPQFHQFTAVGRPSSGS
# [6] = viability loss in MITF-independent A375 cells – cell-based, CellTiter-Glo luminescence, dry powder, set 2, counter-screen for MITF inhibitor project, dose response (AID 624489); format: functional; details: A-375;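 further: actives are compounds lowering A375 viability meaning general cytotoxicity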
SMILES,EC50 [1],IC50 [2],EC50 [3],IC50 (Caspase-3),AC50 [4],IC50 [5],AC50 [6]
Oc1[nH]c2ccccc2c1N=Nc1ccc(F)cc1,> 300 µM (not active),1.51 µM (active),> 99 µM (inactive),7.58 µM (active),–,–,–
O=C1C(Nc2ccccc2)=C(N2CCCCC2)C(=O)c2ccccc21,–,–,–,–,68.5 µM (active),> 67 µM (not active),24.9 µM (active)
